Values quoted from earlier work, collected in patent publication US9072916B2, “Aqueous anti-perspiration formulation” (BEIERSDORF AG, priority 2004, dated 2015).

Conditions: in water, alcohol, ether and 2-propanol

O=C(O)C(O)c1ccccc1 (stereo not shown) [Mandelic acid, mandelic acid]
solubility: readily soluble
